Source: patent US8686024B2, “Indoline derivatives” (priority 2009, dated 2014)
Where two headings read alike, the source gives them in different places.

What was measured:
[1] = biological target: T1, butyrylcholine esterase (BuChE) (Mus musculus, UniProt Q03311); assay: In vitro assay for choline esterase inhibition (Ellman method), butyrylthiocholine substrate, mouse serum; type: biochemical; conditions: for Ratio AChE/BuChE: selectivity for BuChE inhibition: IC50 (AchE)/IC50 (BuChE); for selectivity to butyrylcholinesterase (BuChE versus AChE inhibitory activity), in words: summary of Tables 1-3
T1 construct: brain homogenate and serum of mouse were used as choline esterase enzyme sources; from tissue; host or cells: mouse serum
T1 sequence (Q03311 30-603): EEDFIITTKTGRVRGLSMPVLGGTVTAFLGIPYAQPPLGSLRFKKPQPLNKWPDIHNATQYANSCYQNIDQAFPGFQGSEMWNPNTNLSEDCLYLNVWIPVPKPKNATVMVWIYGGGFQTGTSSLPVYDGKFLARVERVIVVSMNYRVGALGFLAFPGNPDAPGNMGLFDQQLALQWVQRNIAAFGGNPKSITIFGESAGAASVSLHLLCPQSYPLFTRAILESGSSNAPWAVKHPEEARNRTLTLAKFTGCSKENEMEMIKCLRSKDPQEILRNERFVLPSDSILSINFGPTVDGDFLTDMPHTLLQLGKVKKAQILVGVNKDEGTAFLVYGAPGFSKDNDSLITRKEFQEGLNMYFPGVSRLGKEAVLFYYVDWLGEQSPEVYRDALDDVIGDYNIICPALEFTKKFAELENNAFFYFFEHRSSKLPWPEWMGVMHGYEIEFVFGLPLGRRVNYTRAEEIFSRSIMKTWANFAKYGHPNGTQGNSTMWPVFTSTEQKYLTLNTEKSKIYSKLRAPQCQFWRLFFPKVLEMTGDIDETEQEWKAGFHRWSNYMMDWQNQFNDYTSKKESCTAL
Description: (§1) For measurement of esterase activity, brain homogenate and serum of mouse were used as choline esterase enzyme sources, and the method of Ellman et. al (Biochemical pharmacology 7: 88-95 1961) were referred. Compound of each example were diluted in dimethylsulfoxide.
(§2) In detail, acetylthiocholine or butyrylthiocholine as substrates, test compounds, and DNTB [[…]] were added to the mouse brain homogenate or serum, respectively.
(§3) After incubation, thiocholine was produced by enzyme reaction in the mixture, and then, the yellow product was formed by the reaction of thiocholine and DTNB. The activity of acetylcholine esterase (AChE) or butyrylcholine esterase (BuChE) was evaluated by determination of absorbance at 415 nm. […] And the selectivity for BuChE inhibition of each compound was calculated by the ratio: IC50 (AchE)/IC50 (BuChE).

[2] = biological target: T2, acetylcholine esterase (AChE) (Mus musculus, UniProt P21836); assay: In vitro assay for choline esterase inhibition (Ellman method), acetylthiocholine substrate, mouse brain homogenate; type: biochemical
T2 construct: brain homogenate and serum of mouse were used as choline esterase enzyme sources; from tissue; host or cells: mouse brain homogenate
T2 sequence (P21836 32-614): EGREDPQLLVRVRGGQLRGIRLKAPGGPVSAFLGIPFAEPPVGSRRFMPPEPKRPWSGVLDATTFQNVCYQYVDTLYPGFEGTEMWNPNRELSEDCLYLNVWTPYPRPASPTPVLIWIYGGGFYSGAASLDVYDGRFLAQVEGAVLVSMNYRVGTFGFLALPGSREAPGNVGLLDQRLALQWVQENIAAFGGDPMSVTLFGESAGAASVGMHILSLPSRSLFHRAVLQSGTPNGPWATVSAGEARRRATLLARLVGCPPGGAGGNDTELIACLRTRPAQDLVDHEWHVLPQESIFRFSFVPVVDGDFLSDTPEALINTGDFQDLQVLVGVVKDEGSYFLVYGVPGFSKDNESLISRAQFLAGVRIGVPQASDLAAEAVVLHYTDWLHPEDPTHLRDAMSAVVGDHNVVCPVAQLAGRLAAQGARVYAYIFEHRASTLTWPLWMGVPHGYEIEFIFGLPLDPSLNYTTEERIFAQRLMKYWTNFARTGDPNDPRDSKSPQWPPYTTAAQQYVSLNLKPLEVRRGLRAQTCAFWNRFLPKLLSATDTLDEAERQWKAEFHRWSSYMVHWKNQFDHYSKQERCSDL
Description: as §1, §2, §3

[3] = mouse serum, butyrylthiocholine, absorbance at 415 nm, read-out: BuChE inhibitory activity IC50
[4] = mouse brain homogenate, acetylthiocholine, absorbance at 415 nm, read-out: AChE inhibitory activity IC50

## COC1C=CC(CNC(=O)Oc2ccc3c(c2)CCN3Cc2ccccc2)(OC)O1 (centres unmarked) [Example 122, 1-benzylindolin-5-yl (2,5-dihydro-2,5-dimethoxyfuran-2-yl)methylcarbamate]
[1]
  IC50: 0.48 µM
  Ratio AChE/BuChE: >210
[2]
  IC50: > 100 µM

## O=C(NCc1ccccc1)Oc1ccc2c(c1)CCN2 [Example 127, indolin-5-yl benzylcarbamate]
[1]; [3]
  IC50: 0.61 µM
[1]
  Ratio AChE/BuChE: 1.2
[2]; [4]
  IC50: 0.75 µM

## CNC(=O)Oc1ccc2c(c1)CCN2Cc1ccccc1 [Example 131, 1-benzylindolin-5-yl methylcarbamate]
[1]
  IC50: 0.21 µM
  Ratio AChE/BuChE: 6.2
[2]
  IC50: 1.3 µM

## CN(C)c1ccc(NC(=O)Oc2ccc3c(c2)CCN3Cc2ccccc2)cc1 [Example 133, 1-benzylindolin-5-yl 4-dimethylaminophenylcarbamate]
[1]
  IC50: 0.039 µM
  Ratio AChE/BuChE: >2600
  selectivity to butyrylcholinesterase (BuChE versus AChE inhibitory activity), in words: much higher
[2]
  IC50: > 100 µM

## CN(C)CCCNC(=O)Oc1ccc2c(c1)CCN2Cc1ccccc1 [Example 137, 1-benzylindolin-5-yl 3-(dimethylamino)propylcarbamate]
[1]
  IC50: 0.18 µM
  Ratio AChE/BuChE: >560
[2]
  IC50: > 100 µM

## O=C(NC1CCN(Cc2ccccc2)CC1)Oc1ccc2c(c1)CCN2Cc1ccccc1 [Example 138, 1-benzylindolin-5-yl 1-benzylpiperidin-4-ylcarbamate]
[1]
  IC50: 0.9 µM
  Ratio AChE/BuChE: >110
[2]
  IC50: > 100 µM

## O=C(NCCC1CCN(Cc2ccccc2)CC1)Oc1ccc2c(c1)CCN2Cc1ccccc1 [Example 139, 1-benzylindolin-5-yl 2-(1-benzylpiperidin-4-yl)ethylcarbamate]
[1]
  IC50: 0.043 µM
  Ratio AChE/BuChE: 63
[2]
  IC50: 2.7 µM

## COc1ccc(NC(=O)Oc2ccc3c(c2)CCN3Cc2ccccc2)cc1OC [Example 140, 1-benzylindolin-5-yl 3,4-dimethoxyphenylcarbamate]
[1]
  IC50: 0.11 µM
  Ratio AChE/BuChE: >910
[2]
  IC50: > 100 µM

## CC(C)c1ccc(NC(=O)Oc2ccc3c(c2)C(C)(C)CN3Cc2ccccc2)cc1 [Example 145, 1-benzyl-3,3-dimethylindolin-5-yl-4-isopropylphenylcarbamate]
[1]; [3]
  IC50: 0.28 µM
[1]
  Ratio AChE/BuChE: >360
[2]; [4]
  IC50: > 100 µM

## CC(C)c1ccc(NC(=O)Oc2ccc3c(c2)C(C)CN3Cc2ccccc2)cc1 (centres unmarked) [Example 146, 1-benzyl-3-methylindolin-5-yl-4-isopropylphenylcarbamate]
[1]; [3]
  IC50: 0.18 µM
[1]
  Ratio AChE/BuChE: >560
[2]; [4]
  IC50: > 100 µM

## CCCCCCNC(=O)Oc1ccc2c(c1)CCN2Cc1ccccn1 [Example 147, 1-(2-pyridylmethyl)indolin-5-yl n-hexylcarbamate]
[1]; [3]
  IC50: 0.011 µM
[1]
  Ratio AChE/BuChE: 23
[2]; [4]
  IC50: 0.25 µM

## O=C(NCC1CCCCC1)Oc1ccc2c(c1)CCN2Cc1ccccn1 [Example 148, 1-(2-pyridylmethyl)indolin-5-yl cyclohexylmethylcarbamate]
[1]; [3]
  IC50: 0.002 µM
[1]
  Ratio AChE/BuChE: 600
  selectivity to butyrylcholinesterase (BuChE versus AChE inhibitory activity), in words: much higher
[2]; [4]
  IC50: 1.2 µM

## O=C(NC1CCCCC1)Oc1ccc2c(c1)CCN2Cc1ccccn1 [Example 149, 1-(2-pyridylmethyl)indolin-5-yl cyclohexylcarbamate]
[1]; [3]
  IC50: 0.058 µM
[1]
  Ratio AChE/BuChE: 38
[2]; [4]
  IC50: 2.2 µM

## O=C(NCc1ccccc1)Oc1ccc2c(c1)CCN2Cc1ccccn1 [Example 150, 1-(2-pyridylmethyl)indolin-5-yl benzylcarbamate]
[1]; [3]
  IC50: 0.01 µM
[1]
  Ratio AChE/BuChE: 11
[2]; [4]
  IC50: 0.11 µM

## CN(C)c1ccc(NC(=O)Oc2ccc3c(c2)CCN3Cc2ccccn2)cc1 [Example 152, 1-(2-pyridylmethyl)indolin-5-yl 4-dimethylaminophenylcarbamate]
[1]; [3]
  IC50: 0.057 µM
[1]
  Ratio AChE/BuChE: 19
[2]; [4]
  IC50: 1.1 µM
